Laboratory results as given in EP3807270B1, “NOVEL HETEROARYL HETEROCYCLYL COMPOUNDS FOR THE TREATMENT OF AUTOIMMUNE DISEASE” (F. Hoffmann-La Roche AG, priority 2018, dated 2019).

Molecular target: T1, human TLR8 (Homo sapiens, UniProt Q9NR97)
T1 construct: host or cells: HEK293 (HEK-Blue)
T1 sequence (Q9NR97 27-1041): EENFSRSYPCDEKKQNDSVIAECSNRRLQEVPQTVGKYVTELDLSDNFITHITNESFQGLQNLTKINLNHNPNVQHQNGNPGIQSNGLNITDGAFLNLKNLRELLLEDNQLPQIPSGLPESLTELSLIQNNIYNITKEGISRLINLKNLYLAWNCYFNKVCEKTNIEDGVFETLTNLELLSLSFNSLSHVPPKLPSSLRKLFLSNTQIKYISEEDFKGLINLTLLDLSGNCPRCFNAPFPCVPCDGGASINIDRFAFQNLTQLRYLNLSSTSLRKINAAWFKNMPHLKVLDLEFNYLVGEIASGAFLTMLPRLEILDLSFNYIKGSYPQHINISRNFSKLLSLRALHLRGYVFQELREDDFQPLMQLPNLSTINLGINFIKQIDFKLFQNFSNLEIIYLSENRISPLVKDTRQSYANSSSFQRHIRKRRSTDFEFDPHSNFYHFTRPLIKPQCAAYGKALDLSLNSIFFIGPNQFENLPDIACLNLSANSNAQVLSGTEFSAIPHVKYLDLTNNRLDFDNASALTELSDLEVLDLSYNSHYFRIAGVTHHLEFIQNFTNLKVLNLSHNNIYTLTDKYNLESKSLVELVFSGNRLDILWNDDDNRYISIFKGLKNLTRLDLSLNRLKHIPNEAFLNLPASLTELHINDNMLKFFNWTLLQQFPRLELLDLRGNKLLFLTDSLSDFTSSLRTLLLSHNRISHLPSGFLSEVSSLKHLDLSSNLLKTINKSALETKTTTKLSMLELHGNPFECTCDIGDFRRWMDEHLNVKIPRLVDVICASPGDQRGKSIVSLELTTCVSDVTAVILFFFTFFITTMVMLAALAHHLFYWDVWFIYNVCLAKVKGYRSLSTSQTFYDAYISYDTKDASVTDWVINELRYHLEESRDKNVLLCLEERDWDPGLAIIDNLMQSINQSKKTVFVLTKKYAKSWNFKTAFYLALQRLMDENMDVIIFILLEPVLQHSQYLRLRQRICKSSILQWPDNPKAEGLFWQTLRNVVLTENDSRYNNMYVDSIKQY
Assay: HEK293-Blue-hTLR-8 cells assay (SEAP reporter, R848 stimulation)
Assay type: cell-based
Details: HEK293-Blue-hTLR8 cells, R848, 20 hrs; read-out: HEK/hTLR8 IC50
Procedure, shortened: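 HEK293-Blue-hTLR8 cells (NF-κB/AP-1-driven SEAP) in DMEM/10% FBS were treated with serially diluted compound (1% DMSO final) plus R848 for 20 hrs at 37 °C. Supernatant SEAP was measured with QUANTI-Blue after 2 hrs at 37 °C, absorbance 620-655 nm; antagonism seen as reduced reporter.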

`COC1CNCc2ccc(N3CCN(C[C@H]4CN(c5ccc(C#N)c6ncccc56)C[C@@H](C)O4)CC3)cc21` (stereo partly drawn) [Example 58, 5-[(2S,6R)-2-[[4-(4-methoxy-1,2,3,4-tetrahydroisoquinolin-6-yl)piperazin-1-yl]methyl]-6-methyl-morpholin-4-yl]quinoline-8-carbonitrile] and `C[C@@H]1CN(c2ccc(C#N)c3ncccc23)C[C@H](CN2CCN(c3ccc4c(c3)C(O)CN(C)C4)CC2)O1` (stereo partly drawn) [Example 59, 5-[(2S,6R)-2-[[4-(4-hydroxy-2-methyl-3,4-dihydro-1H-isoquinolin-6-yl)piperazin-1-yl]methyl]-6-methyl-morpholin-4-yl]quinoline-8-carbonitrile] are within 1.5-fold of each other in IC50: 15 nM for the first, 11 nM for the second.

`Cc1nc2c(nc1N1CCN(C[C@H]3CN(c4ccc(C#N)c5ncccc45)C[C@@H](C)O3)CC1)CCNC2` [Example 60, 5-[(2R,6S)-2-methyl-6-[[4-(3-methyl-5,6,7,8-tetrahydropyrido[3,4-b]pyrazin-2-yl)piperazin-1-yl]methyl]morpholin-4-yl]quinoline-8-carbonitrile] and `C[C@@H]1CN(c2ccc(C#N)c3ncccc23)C[C@H](CN2CCN(c3ncnc4c3CNCC4)CC2)O1` [Example 61, 5-[(2R,6S)-2-methyl-6-[[4-(5,6,7,8-tetrahydropyrido[4,3-d]pyrimidin-4-yl)piperazin-1-yl]methyl]morpholin-4-yl]quinoline-8-carbonitrile] are within 1.5-fold of each other in IC50: 14 nM for the first, 10 nM for the second.

Compared with `C[C@@H]1CN(c2ccc(C#N)c3ncccc23)C[C@H](CN2CCN(c3nccc4c3CCNC4)CC2)O1` [Example 62, 5-[(2R,6S)-2-methyl-6-[[4-(5,6,7,8-tetrahydro-2,6-naphthyridin-1-yl)piperazin-1-yl]methyl]morpholin-4-yl]quinoline-8-carbonitrile], `C[C@@H]1CN(c2ccc(C#N)c3ncccc23)C[C@H](CN2CCN(c3ccc4c(n3)CNCC4)CC2)O1` [Example 69, 5-[(2R,6S)-2-methyl-6-[[4-(5,6,7,8-tetrahydro-1,7-naphthyridin-2-yl)piperazin-1-yl]methyl]morpholin-4-yl]quinoline-8-carbonitrile] is 2.8-fold lower in IC50: 14 nM for the first, 5 nM for the second.

Going from `C[C@@H]1CN(c2ccc(C#N)c3nccnc23)C[C@H](CN2CCN(c3cc4c(cn3)CCNC4)CC2)O1` [Example 80, 8-[(2R,6S)-2-methyl-6-[[4-(5,6,7,8-tetrahydro-2,6-naphthyridin-3-yl)piperazin-1-yl]methyl]morpholin-4-yl]quinoxaline-5-carbonitrile] to `C[C@@H]1CN(c2ccc(C#N)c3ncccc23)C[C@H](CN2CCN(c3ccc(Cl)cc3)CC2)O1` [Example R2, 5-[(2S,6R)-2-[[4-(4-chlorophenyl)piperazin-1-yl]methyl]-6-methyl-morpholin-4-yl]quinoline-8-carbonitrile, reference compound], the IC50 rises from 7 nM to 342 nM (49-fold).

`COc1ccc(N2CCN(C[C@H]3CN(c4ccc(C#N)c5ncccc45)C[C@@H](C)O3)CC2)cc1` [Example R1, 5-[(2S,6R)-2-[[4-(4-methoxyphenyl)piperazin-1-yl]methyl]-6-methyl-morpholin-4-yl]quinoline-8-carbonitrile, reference compound] showed an IC50 of 142 nM.
